According to publication PMC6284057, “Combined Antibacterial Effects of Goat Cathelicidins With Different Mechanisms of Action” (Frontiers in Microbiology, 2018):
Where two headings read alike, the source gives them in different places. No end group written: not given here.

Assays:
[1] = tested on: A. baumannii (XDR CI 2675); experiment: microbe, parasite or virus in culture; format: cell-based, Acinetobacter baumannii; details: read-out: Minimum inhibitory concentration
Experimental: (§1) Antimicrobial assay was performed as described previously ([Panteleev et al., 2017b]). Briefly, mid-log phase bacterial test cultures were diluted with the 2× Mueller-Hinton broth (MH, Sigma) supplemented with 1.8% NaCl or without it so that to reach a final cell concentration of 10^6 CFU/ml. 50 μl aliquots of the obtained bacterial suspension were added to 50 μl of the peptide solutions serially diluted with 0.1% water solution of bovine serum albumin (BSA) in 96-well flat-bottom polystyrene microplates (Eppendorf #0030730011). After incubation at 37°C and 900 rpm for 24 h the minimum inhibitory concentrations (MIC) were determined as the lowest peptide concentrations that prevented growth of a test microorganism observed as visible turbidity. The results were expressed as the median values determined on the basis of at least three independent experiments performed in triplicate.

[2] = tested on: E. coli (XDR CI 1057); experiment: microbe, parasite or virus in culture; format: cell-based, Escherichia coli
Experimental: as §1

[3] = tested on: E. coli ML-35p; format: cell-based, Escherichia coli; details: Mueller-Hinton broth, 10^6 CFU/ml, 0.1% BSA, 37°C, 24 h, median of at least 3 experiments
Experimental: as §1

[4] = tested on: E. coli (CI 214); format: cell-based, Escherichia coli; details: CI 214, 24 h
Experimental: as §1
(§2) The peptides were twofold serially diluted with 0.1% BSA in 96-well microplates (Eppendorf #0030730011). Then, the peptide solutions were mixed in the new test plate crosswise in such a way that the resulting checkerboard contained each combination of the cathelicidins in eight doubly increasing concentrations, with wells containing the highest concentration of each peptide at opposite corners ([Berditsch et al., 2015]). Then, the antimicrobial assay was performed as described in the previous section. […] The results were expressed as the median values determined on the basis of three independent experiments performed in duplicate. Estimation of synergistic effects of different cathelicidins was performed by calculating the fractional inhibitory concentration index (FICI) according to the equation: FICI = [À]/MICÀ + [B]/MICB, where MICÀ and MICB are the MICs of the individual substances, while [A] and [B] are the MICs of A and B when used together. A synergistic effect was defined at a FICI ≤ 0.5.

[5] = tested on: E. coli (XDR CI 1057); format: cell-based, Escherichia coli; details: for Fractional inhibitory concentration (FICA, FICB): [X]/MICX; for Fractional inhibitory concentration (FICA, FICB) / MIC of the peptide when used together ([A], [B]): 0.9% NaCl; for MIC of the peptide when used together ([A], [B]): in the mix ChMAP-28 + mini-ChBac7.5Nα, other peptide at sub-inhibitory concentration; for MIC of the individual peptide (MICA, MICB): peptide used individually, medium with physiological NaCl (0.9%), median of 3 experiments in duplicate
Experimental: as §1, §2

[6] = tested on: E. coli BL21 (DE3); format: cell-based, Escherichia coli; details: BL21, 24 h
Experimental: as §1, §2

[7] = tested on: E. coli C600; format: cell-based, Escherichia coli
Experimental: as §1, §2

[8] = tested on: E. coli ML-35p; format: cell-based, Escherichia coli; details: for Fractional inhibitory concentration (FICA, FICB): [X]/MICX; for Fractional inhibitory concentration (FICA, FICB) / MIC of the peptide when used together ([A], [B]): 0.9% NaCl; for MIC of the peptide when used together ([A], [B]): in the mix ChMAP-28 + mini-ChBac7.5Nα, other peptide at sub-inhibitory concentration; for MIC of the individual peptide (MICA, MICB): peptide used individually, medium with physiological NaCl (0.9%), median of 3 experiments in duplicate
Experimental: as §1, §2

[9] = tested on: K. pneumoniae (CI 287); format: cell-based, Klebsiella pneumoniae
Experimental: as §1, §2

[10] = tested on: E. coli XDR CI 1057 (26 days with synergy combination); details: Table 4, strain after 26 days with synergy combination (selection in MH broth with 0.9% NaCl)
Experimental: as §1, with “After incubation at 37°C and 900 rpm for 24 h the minimum inhibitory concentrations (MIC) were determined as the lowest peptide concentrations that prevented growth of a test microorganism observed as visible turbidity.” left out
(§3) Resistance induction experiments were performed using the previously described method ([Chernysh et al., 2015]) with some modifications. Briefly, on day 1, the overnight culture of wild-type bacteria was diluted with the 2× MH broth containing 1.8% NaCl so that to reach a final cell concentration of 10^6 CFU/ml. 50 μl aliquots of the obtained bacterial suspension were added to 50 μl of the peptide solutions serially diluted with 0.1% water solution of BSA in 96-well microplates (Eppendorf #0030730011). After incubation at 37°C and 900 rpm for 22 ± 2 h, MICs were determined as described above. For each subsequent daily transfer, 5 μl of the inoculum taken from the first well with a sub-inhibitory drug concentration were diluted with 1 ml of the fresh 2× MH broth supplemented with 1.8% NaCl. […] 26 repeated passages in the presence of antimicrobial agents were made for each bacterial strain during the experiment. […] Control serial passages in the absence of the agent were also performed.

[11] = tested on: E. coli XDR CI 1057 (26 days without antimicrobial agent)
Experimental: as §1, with “After incubation at 37°C and 900 rpm for 24 h the minimum inhibitory concentrations (MIC) were determined as the lowest peptide concentrations that prevented growth of a test microorganism observed as visible turbidity.” left out
as §3

[12] = tested on: mammalian cell lines (HEK293T, HEF); experiment: Cytotoxicity (MTT assay); format: cell-based, human; details: HEK293T and HEF, 24 h incubation
Experimental: (§4) Hemolytic activity of the peptides was tested against the fresh suspension of human red blood cells (hRBC) using the hemoglobin release assay as described previously ([Panteleev et al., 2016]). Three experiments were performed with the hRBC from blood samples obtained from independent donors. The obtained data were represented as average means with standard deviations. The cytotoxicity of the peptides against HEK293T (transformed human embryonic kidney cells) and HEF (human embryonic fibroblasts) cell lines was studied using the colorimetric 3-(4,5-dimethylthiazol-2-yl)-2,5-diphenyltetrazolium bromide (MTT) dye reduction assay according to ([Panteleev and Ovchinnikova, 2017]). Three independent experiments were performed for each peptide. Half maximal inhibitory concentration (IC50) values were estimated as described previously ([Kuzmin et al., 2018]).

[13] = tested on: HEK293T cells; experiment: Cytotoxicity (MTT assay); format: cell-based, human; details: 24 h incubation, 3 independent experiments, read-out: IC50 against HEK293T cells
Experimental: as §4

[14] = 0.9% NaCl, Mueller-Hinton broth, 10^6 CFU/ml, 0.1% BSA, 37°C, 24 h, median of at least 3 experiments
[15] = Without NaCl, Mueller-Hinton broth, 10^6 CFU/ml, 0.1% BSA, 37°C, 24 h, median of at least 3 experiments
[16] = Table 4, strain at 0 days of selection experiment (selection in MH broth with 0.9% NaCl)
[17] = Table 4, strain after 26 days without antimicrobial agent (selection in MH broth with 0.9% NaCl)
[18] = With 0.9% NaCl, control strain, 26 days without antimicrobial agent
[19] = Without salt, control strain, 26 days without antimicrobial agent
[20] = Table S2, XDR clinical isolate, NaCl content of medium not stated

RRLRPRRPRLPRPRPRPRPRPR [mini-ChBac7.5Nα]
MIC [1, 14]: >32 µM | MIC [1, 15]: 2 µM | Minimum inhibitory concentration [2, 16]: 8 µM | Minimum inhibitory concentration ([3]; 0.9% NaCl): 4 µM | Minimum inhibitory concentration ([3]; Without NaCl): 0.5 µM | MIC of the individual peptide (MICA, MICB) [4]: >64 µM | Fractional inhibitory concentration (FICA, FICB) [5]: 0.25 | MIC of the peptide when used together ([A], [B]) [5]: 2 µM | MIC of the individual peptide (MICA, MICB) [5]: 8 µM | Fractional inhibitory concentration (FICA, FICB) [6]: 0.125 | MIC of the individual peptide (MICA, MICB) [6]: 8 µM | Fractional inhibitory concentration (FICA, FICB) ([7]; C600, 24 h): 0.25 | MIC of the individual peptide (MICA, MICB) ([7]; C600, 24 h): 4 µM | Fractional inhibitory concentration (FICA, FICB) [8]: 0.25 | MIC of the peptide when used together ([A], [B]) [8]: 1 µM | MIC of the individual peptide (MICA, MICB) [8]: 4 µM | Fractional inhibitory concentration (FICA, FICB) ([9]; CI 287, 24 h): 0.125 | MIC of the individual peptide (MICA, MICB) ([9]; CI 287, 24 h): 16 µM | Minimum inhibitory concentration [10]: 8 µM | Minimum inhibitory concentration [11, 17]: 8 µM | Minimum inhibitory concentration [11, 18]: 8 µM | Minimum inhibitory concentration [11, 19]: 1 µM | concentrations at which cytotoxic activity was shown [12]: > 25 µM

GRFKRFRKKLKRLWHKVGPFVGPILHY [ChMAP-28]
MIC [1, 14]: 0.25 µM | MIC [1, 20]: 0.25 µM | MIC [1, 15]: 0.03 µM | Minimum inhibitory concentration [2, 16]: 0.125 µM | Minimum inhibitory concentration [2, 20]: 0.125 µM | Minimum inhibitory concentration ([3]; 0.9% NaCl): 0.06 µM | Minimum inhibitory concentration ([3]; Without NaCl): 0.06 µM | Fractional inhibitory concentration (FICA, FICB) [4]: 0.25 | MIC of the individual peptide (MICA, MICB) [4]: 0.06 µM | Fractional inhibitory concentration (FICA, FICB) [5]: 0.063 | MIC of the peptide when used together ([A], [B]) [5]: 0.008 µM | MIC of the individual peptide (MICA, MICB) [5]: 0.125 µM | Fractional inhibitory concentration (FICA, FICB) [6]: 0.25 | MIC of the individual peptide (MICA, MICB) [6]: 0.06 µM | Fractional inhibitory concentration (FICA, FICB) ([7]; [X]/MICX, 0.9% NaCl): 0.125-0.25 | MIC of the individual peptide (MICA, MICB) ([7]; peptide used individually, medium with physiological NaCl (0.9%), median of 3 experiments in duplicate): 0.125 µM | Fractional inhibitory concentration (FICA, FICB) [8]: 0.125 | MIC of the peptide when used together ([A], [B]) [8]: 0.008 µM | MIC of the individual peptide (MICA, MICB) [8]: 0.06 µM | MIC of the individual peptide (MICA, MICB) ([9]; CI 287, 24 h): 0.5 µM | Fractional inhibitory concentration (FICA, FICB) ([9]; [X]/MICX, 0.9% NaCl): 0.125 | Minimum inhibitory concentration [10]: 0.125 µM | Minimum inhibitory concentration [11, 17]: 0.125 µM | Minimum inhibitory concentration [11, 18]: 0.125 µM | Minimum inhibitory concentration [11, 19]: 0.125 µM | IC50 [13]: ~3.5 µM
